From US5258382A, “Tetrahydropyrrolo[1,2-a]pyrazine-4-spiro-3'-pyrrolidine derivatives, processes for the preparation thereof and pharmaceutical compositions containing the same” (Dainippon Pharmaceutical Co., Ltd., priority 1991, dated 1993)
Like-named read-outs stand apart in the source and are kept apart here.

What was measured:
Aldose reductase = target: T1, Aldose reductase (Sus scrofa, UniProt P80276); experiment: Aldose reductase inhibitory activity (in vitro); type: biochemical, porcine
T1 construct: Lenses isolated from porcine eyes (Tokyo Sibaura Zouki Co., Ltd., Japan) were homogenized; tissue Tokyo Sibaura Zouki Co., Ltd., Japan (porcine eyes); host or cells: porcine lens
Method: Lenses isolated from porcine eyes (Tokyo Sibaura Zouki Co., Ltd., Japan) were homogenized with 5 mM phosphate buffer (pH 7.4) containing 2 mM mercaptoethanol, and centrifuged at 10,200 g for 10 minutes. The supernatant was sequentially precipitated with ammonium sulfate at 30%, 40% and 60% saturation. The precipitate at 60% saturation was dissolved in a homogenizing buffer and used as a crude enzyme preparation. The unit of enzyme activity was defined as the amount of enzyme which oxidized 1 μmoles of NADPH/minute under the following assay condition.
The standard reaction mixture was composed of 100 mM phosphate buffer (pH 6.5), 0.2 mM NADPH, 1.5 mM D,L-glyceraldehyde, 0.4M lithium sulfate, enzyme solution (7.0 mU/ml) and test compounds at various concentrations. The reaction mixture was incubated at 37° C., and the decrease in absorbance at 340 nm was monitored by a spectrophotometer (Hitachi 150-20). The enzyme activity was calculated based upon the rate of decrease in the absorbance over a period of 1 minute from 1 minute after the onset of the enzyme reaction.

sorbitol accumulation = experiment: Inhibitory activity on sorbitol accumulation (in vivo), sciatic nerve of streptozotocin-diabetic rats; parameters: species or system Male Wistar rats; details: for Inhibition (%) of sorbitol accumulation: oral, once a day for 5 days, sciatic nerve, 4 hours after final administration; for inhibitory activity on sorbitol accumulation relative to (±)-sorbinil: compared with (±)-sorbinil; for duration of effect: rat, in vivo
Method: Male Wistar rats (200-250 g) were used in groups of 4 animals each. The rats were made diabetic by single i.v. injection of streptozotocin (40 mg/kg) freshly dissolved in physiological saline.
From one week after the induction of diabetes, the rats were orally given test compounds, suspended in 0.5% tragacanth solution, once a day for 5 days. […] The activity of test compounds was expressed as the inhibition percent of sorbitol accumulation ar given doses, which was calculated according to the following equation.
Inhibition %=(S-T)/(S-N)×100
S: Sorbitol content in sciatic nerve from diabetic control
T: Sorbitol content in sciatic nerve from diabetic rats given test compounds
N: Sorbitol content in sciatic nerve from normal rats.

Acute toxicity, oral = details: 1 g/kg oral, suspended in 0.5% tragacanth; observed for 7 days
Description: Male ddY mice (18-25 g) were used in groups of 5 animals each. The compounds of Examples 1 (21) and 22, suspended in 0.5% tragacanth solution, were orally administered at a dose of 1 g/kg to the animals.

[1] = crude enzyme from porcine lenses, D,L-glyceraldehyde 1.5 mM, NADPH 0.2 mM, pH 6.5, 37° C., read-out: IC50 (aldose reductase inhibitory activity)

Row | SMILES | IC50 (Aldose reductase; [1]) | Inhibition (%) of sorbitol accumulation (sorbitol accumulation; 30 mg/kg/day) | inhibitory activity on sorbitol accumulation relative to (±)-sorbinil (sorbitol accumulation) | further results
1 | COc1ccc(CN2C(=O)c3cccn3C3(CC(=O)NC3=O)C2=O)cc1OC (centres unmarked) [Example 13] | 110 nM | – | – | –
2 | O=C1CC2(C(=O)N1)C(=O)N(Cc1ccc([N+](=O)[O-])cc1)C(=O)c1cccn12 (centres unmarked) [Example 15] | 110 nM | 102.2% | – | Inhibition (%) of sorbitol accumulation (sorbitol accumulation; 3.0 mg/kg/day): 7.4%
3 | O=C1CC2(C(=O)N1)C(=O)N(Cc1ccc(Br)cc1F)C(=O)c1cc(Cl)cn12 (centres unmarked) [Example 19, 2-(4-bromo-2-fluorobenzyl)-7-chloro-[1,2,3,4-tetrahydropyrrolo[1,2-a]pyrazine-4-spiro-3'-pyrrolidine]-1,2',3,5'-tetrone] | 50 nM | – | – | –
4 | O=C1CC2(C(=O)N1)C(=O)N(Cc1ccc(Br)cc1F)C(=O)c1cccn12 (centres unmarked) [Example 1, 2-(4-bromo-2-fluorobenzyl)-[1,2,3,4-tetrahydropyrrolo[1,2-a]pyrazine-4-spiro-3'-pyrrolidine]-1,2',3,5'-tetrone] | – | 114.6% | equipotent to or more potent than (±)-sorbinil | mortality (Acute toxicity, oral): None of the mice died during this period; IC50 (Aldose reductase): 50 nM; Inhibition (%) of sorbitol accumulation (sorbitol accumulation; 1.0 mg/kg/day): 104.7%; duration of effect (sorbitol accumulation): long-lasting
5 | CC(=C\c1ccccc1)/C=C1/SC(=S)N(CC(=O)O)C1=O [Epalrestat, (E,E)-5-(2-methyl-3-phenyl-2-propenylidene) 4-oxo-2-thioxo-3-thiazolidineacetic acid, reference compound] | – | – | – | IC50 (Aldose reductase): 73 nM; Inhibition (%) of sorbitol accumulation (sorbitol accumulation; 200 mg/kg/day): 5.7%
6 | O=C1CC2(C(=O)N1)C(=O)N(Cc1ccc(Br)cc1F)C(=O)c1ccc(Cl)n12 (centres unmarked) [Example 27, 2-(4 bromo-2-fluorobenzyl)-6-chloro-[1,2,3,4-tetrahydropyrrolo[1,2-a]pyrazine-4-spiro-3'-pyrrolidine]-1,2',3,5-tetrone] | 35 nM | – | – | –
7 | O=C1CC2(C(=O)N1)C(=O)N(Cc1ccc(Br)cc1F)C(=O)c1cc(Br)cn12 (centres unmarked) [Example 20, 7-bromo-2-(4-bromo-2-fluorobenzyl)-[1,2,3,4-tetrahydropyrrolo[1,2-a]pyrazine-4-spiro-3'-pyrrolidine]-1,2',3,5'-tetrone] | 100 nM | – | – | –
8 | O=C1NC(=O)C2(CCOc3ccc(F)cc32)N1 (racemic) [(±)-Sorbinil, 6-fluoro-2,3-dihydrospiro[4H-1-benzopyran-4,4'-imidazolidine]-2',5'-dione, reference compound] | – | 106.9% | – | Inhibition (%) of sorbitol accumulation (sorbitol accumulation; 3.0 mg/kg/day): 60.7%
9 | O=C1CC2(C(=O)N1)C(=O)N(Cc1ccc(Br)cc1F)C(=O)c1cccn12 (single isomer, unassigned) [Example 22, an enantiomer of 2-(4-bromo-2-fluorobenzyl)-[1,2,3,4-tetrahydropyrrolo[1,2-a]pyrazine-4-spiro-3'-pyrrolidine]-1,2',3,5'-tetrone] | – | – | equipotent to or more potent than (±)-sorbinil | mortality (Acute toxicity, oral): None of the mice died during this period; IC50 (Aldose reductase): 39 nM; Inhibition (%) of sorbitol accumulation (sorbitol accumulation; 0.3 mg/kg/day): 77.6%; Inhibition (%) of sorbitol accumulation (sorbitol accumulation; 1.0 mg/kg/day): 107.3%; duration of effect (sorbitol accumulation): long-lasting
10 | O=C1CC2(C(=O)N1)C(=O)N(Cc1ccc(Br)cc1F)C(=O)c1ccc(Br)n12 (centres unmarked) [Example 26, 6-bromo-2-(4-bromo-2-fluorobenzyl)-[1,2,3,4-tetrahydropyrrolo[1,2-a]pyrazine-4-spiro-3'-pyrrolidine]-1,2',3,5'-tetrone] | 40 nM | – | – | –

Now from value to compound, other results behind:

Row | IC50 (Aldose reductase; [1]) | SMILES | Inhibition (%) of sorbitol accumulation (sorbitol accumulation; 30 mg/kg/day) | inhibitory activity on sorbitol accumulation relative to (±)-sorbinil (sorbitol accumulation) | further results
11 | 80 nM | O=C1CC2(C(=O)N1)C(=O)N(Cc1ccc(C(F)(F)F)cc1)C(=O)c1cccn12 (centres unmarked) [Example 9] | – | – | –
12 | 52 nM | Cc1ccc(CN2C(=O)c3cccn3C3(CC(=O)NC3=O)C2=O)cc1 (centres unmarked) [Example 11] | 65.8% | – | –
13 | 72 nM | O=C1CC2(C(=O)N1)C(=O)N(Cc1ccc(F)cc1F)C(=O)c1cccn12 (centres unmarked) [Example 10] | 98.0% | – | Inhibition (%) of sorbitol accumulation (sorbitol accumulation; 3.0 mg/kg/day): 33.3%
14 | 61 nM | O=C1CC2(C(=O)N1)C(=O)N(Cc1ccccc1F)C(=O)c1cccn12 (centres unmarked) [Example 4] | – | equipotent to or more potent than (±)-sorbinil | Inhibition (%) of sorbitol accumulation (sorbitol accumulation; 1.0 mg/kg/day): 47.2%; Inhibition (%) of sorbitol accumulation (sorbitol accumulation; 10 mg/kg/day): 73.5%
15 | 41 nM | O=C1CC2(C(=O)N1)C(=O)N(Cc1ccc(Cl)cc1F)C(=O)c1cccn12 (centres unmarked) [Example 16, 2-(4 chloro 2-fluorobenzyl)-[1,2,3,4-tetrahydropyrrolo[1,2-a]pyrazine-4-spiro-3'-pyrrolidine]-1,2',3,5'-tetrone] | – | equipotent to or more potent than (±)-sorbinil | Inhibition (%) of sorbitol accumulation (sorbitol accumulation; 1.0 mg/kg/day): 61.0%
16 | 52 nM | O=C1CC2(C(=O)N1)C(=O)N(Cc1ccccc1Br)C(=O)c1cccn12 (centres unmarked) [Example 17] | – | – | –
17 | 47 nM | O=C1CC2(C(=O)N1)C(=O)N(Cc1ccc(Br)cc1)C(=O)c1cccn12 (centres unmarked) [Example 8, 2-(4-bromobenzyl)-[1,2,3,4-tetrahydropyrrolo[1,2-a]pyrazine-4-spiro-3'-pyrrolidine]-1,2',3,5'-tetrone] | – | equipotent to or more potent than (±)-sorbinil | Inhibition (%) of sorbitol accumulation (sorbitol accumulation; 3.0 mg/kg/day): 104.7%
18 | 46 nM | COc1ccc(CN2C(=O)c3cccn3C3(CC(=O)NC3=O)C2=O)cc1 (centres unmarked) [Example 12] | – | – | –
19 | 99 nM | O=C1CC2(C(=O)N1)C(=O)N(Cc1ccccc1)C(=O)c1cccn12 (centres unmarked) [Example 3] | 69.1% | – | –
20 | 37 nM | O=C1CC2(C(=O)N1)C(=O)N(Cc1cccc(Br)c1)C(=O)c1cccn12 (centres unmarked) [Example 18] | – | – | –
21 | 33 nM | O=C1CC2(C(=O)N1)C(=O)N(Cc1ccc(Cl)cc1)C(=O)c1cccn12 (centres unmarked) [Example 7] | 104.6% | equipotent to or more potent than (±)-sorbinil | Inhibition (%) of sorbitol accumulation (sorbitol accumulation; 3.0 mg/kg/day): 69.7%
22 | 33 nM | O=C1CC2(C(=O)N1)C(=O)N(Cc1ccccc1Cl)C(=O)c1cccn12 (centres unmarked) [Example 2, 2-(2-chlorobenzyl)-[1,2,3,4-tetrahydropyrrolo[1,2-a]pyrazine-4-spiro-3'-pyrrolidine]-1,2',3,5'-tetrone] | 97.1% | – | Inhibition (%) of sorbitol accumulation (sorbitol accumulation; 3.0 mg/kg/day): 30.5%
23 | 120 nM | O=C1CC2(C(=O)N1)C(=O)N(Cc1ccc(F)cc1)C(=O)c1cccn12 (centres unmarked) [Example 6] | 55.8% | – | –
24 | 23 nM | O=C1CC2(C(=O)N1)C(=O)N(Cc1ccc(Cl)c(Cl)c1)C(=O)c1cccn12 (centres unmarked) [Example 24, 2-(3,4-dichlorobenzyl)-[1,2,3,4-tetrahydropyrrolo[1,2-a]pyrazine-4-spiro-3'-pyrrolidine]-1,2',3,5'-tetrone] | 111.8% | equipotent to or more potent than (±)-sorbinil | Inhibition (%) of sorbitol accumulation (sorbitol accumulation; 1.0 mg/kg/day): 70.9%
25 | 31 nM | O=C1CC2(C(=O)N1)C(=O)N(Cc1cccc(Cl)c1)C(=O)c1cccn12 (centres unmarked) [Example 5] | 99.4% | equipotent to or more potent than (±)-sorbinil | Inhibition (%) of sorbitol accumulation (sorbitol accumulation; 3.0 mg/kg/day): 44.2%
